# According to patent US6627408B1, “Antifungal assay” (Cytokinetics, Inc., priority 2000, dated 2003):
# How the values were obtained:
# [1] = molecular target: T1, A. nidulans bimC motor domain (Emericella nidulans, UniProt P17120); experiment: ATPase assay of bimC motor domain (ATP hydrolysis, ADP or phosphate readout); assay type: biochemical, Aspergillus nidulans; settings: bimC kinesin motor domain; motor domain fragment cloned and expressed in bacteria; FIG. 14
# T1 construct: ATPase (bimC kinesin motor domain); made in house; host or cells: bacteria
# T1 sequence (P17120 81-416 limits assumed): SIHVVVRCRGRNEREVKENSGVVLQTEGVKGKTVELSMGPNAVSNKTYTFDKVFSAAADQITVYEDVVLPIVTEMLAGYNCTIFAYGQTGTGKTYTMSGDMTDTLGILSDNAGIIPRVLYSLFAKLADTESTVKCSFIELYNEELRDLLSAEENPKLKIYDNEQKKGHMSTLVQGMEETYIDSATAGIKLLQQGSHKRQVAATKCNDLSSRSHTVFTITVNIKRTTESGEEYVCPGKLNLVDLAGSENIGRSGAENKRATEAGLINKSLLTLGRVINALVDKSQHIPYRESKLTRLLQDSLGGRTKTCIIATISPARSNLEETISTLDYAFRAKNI
# Text: FIG. 12 depicts the cloning and expression of A. nidulans bimC motor domain. In Panel A, an overview of the express is shown. The fragment containing the bimC motor domain is indicated by a filled semi-circle. In B, a Coomassie stained gel of the purification of bimC motor domain is shown.
# Aspergillus nidulans bimC is a kinesin related protein (KRP) whose gene product encodes an essential mitotic KRP. BimC is the founding member of the bimC subfamily of mitotic kinesins (Morris NR, Enos AP. (1992) Trends Genet 8:1 32-7). Mutants in bimC are blocked in mitosis and arrest with duplicated but unseparated spindle poles. (Enos AP, Morris NR. (1990) Cell 60:6 1019-27). Following the discovery that bimC encodes a KRP, several bimC family members have been identified in diverse organisms ranging from yeast to humans. See. FIG. 1. […]
# In a particularly preferred embodiment, a fragment of the bimC protein comprising its hydrolytically active “motor” domain is used. This motor domain has been cloned and expressed in bacteria such that large quantities of biochemically active, substantially pure protein are available (FIG. 12). […]
# In a preferred embodiment, activity is measured by the methods disclosed in Serial No. 09/314,464, filed May 18, 1999, which is incorporated herein by reference in its entirety. […] The presence of ADP or inorganic phosphate release is used as the readout for protein activity. […]
# fungal tubulin = settings: cited from earlier work
# mammalian tubulin = settings: cited from earlier work
Structure (SMILES),IC50 [1],inhibition of fungal tubulin (fungal tubulin),effect on mammalian tubulin (mammalian tubulin)
O=C1OC(c2ccco2)=N/C1=C\c1ccc(Br)s1 [D00018 row 1],25 µM,,
CCCCNC(=O)n1c(NC(=O)OC)nc2ccccc21 [benomyl],,potent inhibitor,no effect
